One assay concerns MAPK14 (BALB/cJ mice). Description: In vivo Inhibition of LPS-induced TNF-alpha Production. The note with it: dose or concentration not given here.
The next assay has as its target MAPK14 (human) (UniProt Q16539). Description: In vitro Inhibition of TNF-alpha Production in PBMC Cells.

Sequence of MAPK14 (human) (Q16539 whole entry, looked up): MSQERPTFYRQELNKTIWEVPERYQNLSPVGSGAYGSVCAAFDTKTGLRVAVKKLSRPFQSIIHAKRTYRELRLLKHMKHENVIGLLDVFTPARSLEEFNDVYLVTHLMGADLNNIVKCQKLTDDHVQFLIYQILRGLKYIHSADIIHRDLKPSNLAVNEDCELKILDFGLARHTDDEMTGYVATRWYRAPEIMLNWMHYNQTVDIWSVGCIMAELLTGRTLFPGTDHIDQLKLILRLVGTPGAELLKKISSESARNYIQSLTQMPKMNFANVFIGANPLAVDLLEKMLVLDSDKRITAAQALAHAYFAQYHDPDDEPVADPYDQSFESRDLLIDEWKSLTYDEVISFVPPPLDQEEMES

The term inhibition denotes the relative decrease from the control value, in per cent. For orientation: IC50 means the concentration at which inhibition is half-maximal. A low value points to greater potency in that assay. For the compound `CON(C)C(=O)c1c(-c2ccc(F)cc2)c(-c2ccncc2)c(N2CCN(C(=O)OC(C)(C)C)CC2)n1C`, the inhibition in the assay with MAPK14 (BALB/cJ mice) stood at 45%. The compound further registered an IC50 against MAPK14 (human) of 72 nM.
The like results for `CCOC(=O)c1[nH]cc(-c2ccncc2)c1-c1cccc(C(F)(F)F)c1` were, in that order, -8% and 96 nM.
For `COC(=O)C1CCn2c(NCCN3CCOCC3)c(-c3ccncc3)c(-c3ccc(F)cc3)c2C1=O` (stereo unspecified) the same measures were 71% and 77 nM.
Regarding `COC(=O)c1c(-c2ccc(F)cc2)c(-c2ccncc2)c(NCc2ccncc2)n1C`, the inhibition in the assay with MAPK14 (BALB/cJ mice) is -22%. The IC50 on MAPK14 (human) is 145 nM.
For `CCNC(=O)N1CCN(c2c(-c3ccncc3)c(-c3ccc(F)cc3)c(C(=O)OC)n2C)CC1` the same measures were -38% and 2920 nM.
For `CCOC(=O)N1CCN(c2c(-c3ccncc3)c(-c3ccc(F)cc3)c(C(=O)OC)n2C)CC1`, in the assay with MAPK14 (BALB/cJ mice), the inhibition was 8%. Further, the IC50 on MAPK14 (human) was 30 nM.
The like results for `COC(=O)c1c(-c2ccc(F)cc2)c(-c2ccncc2)c(Nc2ccc(N3CCOCC3)cc2)n1C` were, in that order, 29% and 1560 nM.
For `CCOC(=O)c1[nH]cc(-c2ccncc2)c1-c1ccccc1` the same measures were 58% and 149 nM.
The like results for `CCCc1[nH]cc(-c2ccc(F)cc2)c1-c1ccnc(N[C@@H](C)COC)n1` were, in that order, -35% and 86 nM.
Consider `CCOC(=O)c1[nH]cc(-c2ccncc2)c1-c1cc(F)cc(F)c1`, for which the inhibition in the assay with MAPK14 (BALB/cJ mice) was -14%. The compound also had an IC50 at MAPK14 (human) of 114 nM.
The like results for `Cn1c(C#N)c(-c2ccc(F)cc2)c(-c2ccncc2)c1N1CCNCC1` were, in that order, 67% and 18 nM.
The like results for `O=C(NCc1ccccc1)c1[nH]cc(-c2ccc(F)cc2)c1-c1ccncc1` were, in that order, -60% and 14 nM.
The like results for `CCN1CCN(c2c(-c3ccncc3)c(-c3ccc(F)cc3)c(C(=O)OC)n2C)CC1` were, in that order, 67.8% and 135 nM.
For the compound `COC(=O)c1c(-c2ccncc2)c(-c2ccc(F)cc2)cn1C`, the inhibition with MAPK14 (BALB/cJ mice) was -56%. On MAPK14 (human), this compound displayed an IC50 of 55 nM.
Consider `CN(C)C(=O)c1c(-c2ccc(F)cc2)c(-c2ccncc2)cn1C`, for which the inhibition in the assay with MAPK14 (BALB/cJ mice) was found to be 33%. This compound gave an IC50 at MAPK14 (human) of 1380 nM.
`CCOC(=O)c1[nH]cc(-c2ccncc2)c1-c1ccc(F)c(F)c1`: in the assay on MAPK14 (BALB/cJ mice), the inhibition was -32%. This compound yielded an IC50 at MAPK14 (human) of 560 nM.
The like results for `CCOC(=O)c1[nH]cc(-c2ccncc2)c1-c1ccc(C)cc1` were, in that order, -218% and 136 nM.
The like results for `COC(=O)c1c(-c2ccc(F)cc2)c(-c2ccncc2)c(N2CCN(S(C)(=O)=O)CC2)n1C` were, in that order, -29% and 5860 nM.
The like results for `COC(=O)c1c(-c2ccc(F)cc2)c(-c2ccncc2)c(NCCN2CCCCC2)n1C` were, in that order, -36% and 92 nM.
As to `COC(=O)CN1CCN(c2c(-c3ccncc3)c(-c3ccc(F)cc3)c(C(=O)OC)n2C)CC1`, the inhibition in the assay with MAPK14 (BALB/cJ mice) stood at 26%. On MAPK14 (human), this compound showed an IC50 of 5 nM.
For `COC(=O)c1c(-c2ccc(F)cc2)c(-c2ccncc2)c(Nc2cccnc2)n1C` the same measures were -10.5% and 57 nM.
The like results for `OCc1c(-c2ccc(F)cc2)c(-c2ccncc2)cn1CCN1CCOCC1` were, in that order, -50% and 277 nM.
The like results for `COC(=O)c1c(-c2ccncc2)c(-c2ccc(F)cc2)c(NCCN2CCOCC2)n1C` were, in that order, 91% and 10000 nM.
As for `C=CC#Cc1c(-c2ccc(F)cc2)c(-c2ccncc2)c(C(=O)OC)n1C`, the inhibition in the assay on MAPK14 (BALB/cJ mice) is -20%. The compound also came in with an IC50 against MAPK14 (human) of 34 nM.
For `COC(=O)c1c(-c2ccc(F)cc2)c(-c2ccncc2)c(N=C(c2ccccc2)c2ccccc2)n1C` the same measures were -49% and 52 nM.
For the compound `Cn1c(Br)c(-c2ccncc2)c(-c2ccc(F)cc2)c1C#N`, the inhibition in the assay with MAPK14 (BALB/cJ mice) was 22%. The IC50 on MAPK14 (human) came out at 625 nM.
The like results for `COC(=O)c1c(-c2ccc(F)cc2)c(-c2ccncc2)c(N2CCN(C3CCCC3)CC2)n1C` were, in that order, 48.6% and 139 nM.
Consider `CCC(=O)c1c(-c2ccc(F)cc2)c(-c2ccncc2)c(N2CCNCC2)n1C`, for which the inhibition in the assay with MAPK14 (BALB/cJ mice) was 32%. Moreover, the IC50 on MAPK14 (human) was determined as 67 nM.
In the case of `Fc1ccc(-c2c[nH]c(CNCc3ccncc3)c2-c2ccncc2)cc1`, in the assay on MAPK14 (BALB/cJ mice), the inhibition stood at 47%. The IC50 at MAPK14 (human) was found to be 74 nM.
The like results for `COC(=O)c1c(-c2ccncc2)c(-c2ccc(F)cc2)c(C#CCCO)n1C` were, in that order, 30% and 894 nM.
For `C[C@H](Nc1nccc(-c2cn(CCN3CCOCC3)cc2-c2ccc(F)cc2)n1)c1ccccc1` the same measures were -21% and 4 nM.
In the case of `COC(=O)c1c(-c2ccc(F)cc2)c(-c2ccncc2)c(N2CCN(C(C)=O)CC2)n1C`, in the assay with MAPK14 (BALB/cJ mice), the inhibition amounted to 57%. In addition, the IC50 against MAPK14 (human) stood at 1530 nM.
For `Cn1c(Br)c(-c2ccncc2)c(-c2ccc(F)cc2)c1C(=O)OC(C)(C)C` the same measures were -7% and 1890 nM.
